Several values for one entry are separate records, joined by “and”; a condition that tells them apart may be missing. Equal entries are not always repeated. Square brackets hold non-standard residues; d marks the D form. Peptide text beside a SMILES is read from it. * marks the point of attachment. dPhe(4-NHCONH2) = NC(=O)Nc1ccc(C[C@@H](N)C(=O)O)cc1; Dihydroorotyl(S) = O=C1C[C@@H](C(=O)*)NC(=O)N1; dPhe(4-NH2) = Nc1ccc(C[C@@H](N)C(=O)O)cc1; dPhe(4-Cl) = N[C@H](Cc1ccc(Cl)cc1)C(=O)O; Phe(4-NH2) = Nc1ccc(C[C@H](N)C(=O)O)cc1; d2Nal = N[C@H](Cc1ccc2ccccc2c1)C(=O)O; Lys(iPr) = CC(C)NCCCC[C@H](N)C(=O)O; NMeY = CN[C@@H](Cc1ccc(O)cc1)C(=O)O; d3Pal = N[C@H](Cc1cccnc1)C(=O)O
Key:
bovine pituitary cells = test: GnRH-induced LH secretion of bovine pituitary cells in vitro (Example 9); type: cell-based; conditions: for LH conc in medium: 300 μg cetrorelix, 340 μg Degarelix, 300 ug Abarelix, 130 μg Relugolix
Description: Methods: The heads of mature, non-pregnant cows (n=4) were collected from a local abattoir and the pituitary glands were dissected within 60 minutes of slaughter. Immediately following the dissection, the pituitaries were submerged into ice-cold collection medium. The pituitaries were washed 3 times in collection media and the neurohypophysis was dissected from the adenohypophysis. Using a scalpel, the adenohypophysis (anterior pituitary) was sliced into 1 mm×1 mm pieces and transferred to a 50 mL falcon tube containing DMEM medium with 0.5% BSA. The tissue pieces were washed by manually agitating the tube for 1 minute. The tissue pieces were allowed to settle to the bottom of the tube, then the supernatant was discarded. The macerated pieces were transferred to a 15 mL falcon tube with the dissociation medium and incubated at 37° C. for 60 minutes. Every 10 minutes the tube was vortexed for 1 minute to ensure the tissue was completely dissociated. The dissociation media was inactivated using DMEM with 10% SFB then manually agitating the tube for 1 minute. The dissociated cells were placed in a 40 μm cell strainer to remove the undigested tissue and placed into two 15 mL falcon tubes. The cells were centrifuged at 200×g for 10 minutes and the supernatant was discarded. The cells were washed three times by resuspending in DMEM solution with red blood cell lysing buffer followed by centrifuged at 200×g for 10 minutes. Then the cells were washed with DMEM solution and centrifuged at 200×g for 10 minutes. Following the last centrifugation, the cells were resuspended in DMEM, and the trypan blue test was used to determine the cell count and assess viability. DMEM with 10% fetal bovine serum (FBS) was treated with 10% charcoal-dextran and passed through a 0.2 μm filter. The cells were then plated in a 24-well tissue culture plate with a concentration of 1×10^6 viable cells per well and incubated at 37° C. for 24 hours. The following day, to starve the cells, the culture media was replaced with DMEM without FBS and left to incubate for another 24 hours.
Treatments: Based on the results from the pilot study, the selected concentration for Cetrorelix (cetrorelix acetate) was 300 μg. The cetrorelix was dissolved in trace levels of DMSO then dissolved in ultrapure water. To standardize the treatments, the nanomole concentration of each GnRH antagonist were matched with the cetrorelix nanomole concentration. The final concentration used for further experiments were: 300 μg for cetrorelix, 340 μg for Degarelix (Degarelix acetate), 300 ug for Abarelix (Abarelix acetate). Both degarelix and abarelix were dissolved ultrapure water. The equivalent Relugolix nanomole concentration was 130 μg which was dissolved in methanol. Treatment cells were preincubated for 60 minutes with either Cetrorelix, Degarelix, Relugolix or Abarelix. Following the preincubation, the cells were incubated for 30 minutes with either 1 nM or 10 nM of GnRH (Gonadorelin, Fertagyl, Merck Animal Health). GnRH doses were based on pituitary study by Paolicchi et al. 1999). The media were collected and centrifuged at 200×g for 10 minutes to remove the cells. Positive (Control) group was only treated with 1 nM and 10 nM of GnRH to determine the maximum LH secretion. LH concentrations in the culture medium was measured by a commercial bovine specific ELISA kit and reported as mIU/ml of medium.

[1] = system: GnRH-induced plasma LH levels and ovulation; test: GnRH challenge in heifers pre-treated with GnRH antagonists: plasma LH and ovulation (Example 10); type: in vivo, cattle; conditions: for Plasma LH response to GnRH challenge: heifers pre-treated with antagonist 60 minutes before GnRH injection; for Ovulation (Yes/No) within 48 hr of GnRH treatment / Plasma LH concentration at 60 minute, group Mean / Plasma LH concentration at 120 minute, group Mean / Plasma LH concentration at −60 minute, group Mean / Plasma LH concentration at 0 minute, group Mean: heifers; for Ovulation (Yes/No) within 48 hr of GnRH treatment / Dominant follicle diameter (mm) 48 hr after GnRH Injection / Dominant follicle diameter (mm) at GnRH injection: 3 mg antagonist 60 min before GnRH; for Plasma LH concentration at 60 minute, group Mean / Plasma LH concentration at 120 minute, group Mean / Plasma LH concentration at 60 minute / Plasma LH concentration at 120 minute: after GnRH injection; for Plasma LH concentration at −60 minute, group Mean / Plasma LH concentration at −60 minute: time of 3 mg GnRH antagonist injection; for Plasma LH concentration at 0 minute, group Mean / Plasma LH concentration at 0 minute: time of GnRH injection; for Dominant follicle diameter (mm) 48 hr after GnRH Injection / Dominant follicle diameter (mm) at GnRH injection / Plasma LH concentration at 60 minute / Plasma LH concentration at 120 minute / Plasma LH concentration at −60 minute / Plasma LH concentration at 0 minute: individual heifers; for Plasma LH concentration at 60 minute / Plasma LH concentration at 120 minute / Plasma LH concentration at 0 minute: 3 mg antagonist at −60 min; for Plasma LH concentration at −60 minute: 60 mins before GnRH
Description: Methods: Pubertal heifers (n=10) with a functional CL were selected at the Federal University of Santa Maria. Heifers were administered an intramuscular (i/m) injection of prostaglandin F2a analog (PGF; Lutalyse 5 ml or Estrumate 2 ml) to induce CL regression. Heifers were randomly placed into 4 treatment groups at the time of PGF injection: Trt1 (n=2, 3 mg of Abarelix); Trt2 (n=2, 3 mg of Degarelix), Trt3 (n=2, 3 mg of Relugolix) and Trt 4 (n=4; Cetrorelix 3 mg). Heifers were treated with these GnRH antagonists 1.5 days (36 hr) after the PGF injection and the GnRH antagonist treatment time point was defined as −60 mins. Heifers were treated with GnRH ([…] of Fertagyl i/m) at 0 mins to induce ovulation. Jugular venipuncture plasma samples were collected every 60 minutes for 3 hours (from −60 min to 120 minutes, with t=0 min when GnRH is administered). Plasma samples were kept at 4C overnight and LH analysis was performed the next day using a bovine-specific ELISA commercial kit. Transrectal ultrasonography was conducted to the time of GnRH injection (Time 0 hr) and 2 days later (48 hr after GnRH injection) to record the size of dominant follicle and to detect ovulation after treatment.

dominant follicle = conditions: acyline-treated animals, multiple injections from just before ovulation; cited from earlier work
[2] = target: GnRH receptor on bovine pituitary gonadotrophs (bovine) (UniProt P32236); test: cell-based or functional assay
[3] = challenged with 1 nM GnRH 30 minutes after 60 minutes preincubation
[4] = challenged with 10 nM GnRH 30 minutes after 60 minutes preincubation

UniProt P32236, sequence (P32236 whole entry): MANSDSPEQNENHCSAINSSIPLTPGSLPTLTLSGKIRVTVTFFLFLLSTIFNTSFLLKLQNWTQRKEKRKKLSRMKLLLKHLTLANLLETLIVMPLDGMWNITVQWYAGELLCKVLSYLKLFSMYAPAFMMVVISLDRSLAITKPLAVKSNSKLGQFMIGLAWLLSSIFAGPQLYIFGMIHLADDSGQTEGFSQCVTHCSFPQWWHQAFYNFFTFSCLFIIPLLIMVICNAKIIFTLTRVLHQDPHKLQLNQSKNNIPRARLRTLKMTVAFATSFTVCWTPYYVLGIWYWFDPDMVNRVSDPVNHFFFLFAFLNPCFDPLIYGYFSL

Compound | LH conc in medium (bovine pituitary cells; [3]) | LH conc in medium (bovine pituitary cells; [4]) | Plasma LH response to GnRH challenge [1] | Ovulation (Yes/No) within 48 hr of GnRH treatment [1] | Plasma LH concentration at 60 minute, group Mean [1] | Plasma LH concentration at 120 minute, group Mean [1] | Plasma LH concentration at −60 minute, group Mean [1] | Plasma LH concentration at 0 minute, group Mean [1] | Dominant follicle diameter (mm) 48 hr after GnRH Injection [1] | Dominant follicle diameter (mm) at GnRH injection [1] | Plasma LH concentration at 60 minute [1] | Plasma LH concentration at 120 minute [1] | Plasma LH concentration at −60 minute [1] | Plasma LH concentration at 0 minute [1] | LH conc (mIU/mL) in medium from bovine pituitary cells in vitro, preincubated 60 min with the antagonist, then challenged 30 min with 1 nM GnRH (control without antagonist: 2.01) [2] | LH conc (mIU/mL) in medium from bovine pituitary cells in vitro, preincubated 60 min with the antagonist, then challenged 30 min with 10 nM GnRH (control without antagonist: 2.49) [2] | other results
CC(=O)N[C@H](Cc1ccc2ccccc2c1)C(=O)N[C@H](Cc1ccc(Cl)cc1)C(=O)N[C@H](Cc1cccnc1)C(=O)N[C@@H](CO)C(=O)N(C)[C@@H](Cc1ccc(O)cc1)C(=O)N[C@H](CC(N)=O)C(=O)N[C@@H](CC(C)C)C(=O)N[C@@H](CCCCNC(C)C)C(=O)N1CCC[C@H]1C(=O)N[C@H](C)C(N)=O [Abarelix, N-acetyl-3-(2-naphthyl)-D-alanyl-4-chloro-D-phenylalanyl-3-(3-pyridyl)-D-alanyl-L-seryl-N-methyl-L-tyrosyl-D-asparagyl-L-leucyl-N6-isopropyl-L-lysyl-L-prolyl-D-alaninamide] (Ac-[d2Nal][dPhe(4-Cl)][d3Pal]S[NMeY][dN]L[Lys(iPr)]P[dA]-NH2) | 2.21 mIU/mL | 2.15 mIU/mL | did not register an increase in LH | No | 10.49 mIU/ml | 11.23 mIU/ml | 9.43 mIU/ml | 11.26 mIU/ml | 14 mm and 12 mm | 14.4 mm and 13.6 mm | 8.96 mIU/ml and 12.02 mIU/ml | 9.32 mIU/ml and 13.14 mIU/ml | 8.65 mIU/ml and 10.21 mIU/ml | 8.98 mIU/ml and 13.54 mIU/ml | – | – | Effect on LH suppression (bovine pituitary cells; 1 nM GnRH challenge): no effect; Effect on LH concentration (bovine pituitary cells; 10 nM challenge): modest decrease; Plasma LH response to GnRH challenge ([1]; listed as abarelix): block the GnRH-induced LH release; Ovulation (Yes/No) within 48 hr of GnRH treatment ([1]; listed as abarelix): prevent GnRH-induced ovulations
CC(=O)N[C@H](Cc1ccc2ccccc2c1)C(=O)N[C@H](Cc1ccc(Cl)cc1)C(=O)N[C@H](Cc1cccnc1)C(=O)N[C@@H](CO)C(=O)N[C@@H](Cc1ccc(NC(=O)[C@@H]2CC(=O)NC(=O)N2)cc1)C(=O)N[C@H](Cc1ccc(NC(N)=O)cc1)C(=O)N[C@@H](CC(C)C)C(=O)N[C@@H](CCCCNC(C)C)C(=O)N1CCC[C@H]1C(=O)N[C@H](C)C(N)=O [Degarelix, N-acetyl-3-(2-naphthyl)-D-alanyl-4-chloro-D-phenylalanyl-3-(3-pyridyl)-D-alanyl-L-seryl-4-((S)-dihydroorotamido)-L-phenylalanyl-4-ureido-D-phenylalanyl-L-leucyl-N6-isopropyl-L-lysyl-L-prolyl-D-alaninamide] (Ac-[d2Nal][dPhe(4-Cl)][d3Pal]S[Phe(4-NH2)](Dihydroorotyl(S))[dPhe(4-NHCONH2)]L[Lys(iPr)]P[dA]-NH2) | 1.33 mIU/mL | 1.21 mIU/mL | did not register an increase in LH | No | 8.60 mIU/ml | 8.62 mIU/ml | 8.14 mIU/ml | 8.89 mIU/ml | 12 mm and 13.2 mm | 14 mm and 15.1 mm | 4.87 mIU/ml and 12.32 mIU/ml | 5.25 mIU/ml and 11.98 mIU/ml | 5.54 mIU/ml and 10.74 mIU/ml | 5.37 mIU/ml and 12.41 mIU/ml | – | – | Plasma LH response to GnRH challenge ([1]; listed as degarelix): block the GnRH-induced LH release; Ovulation (Yes/No) within 48 hr of GnRH treatment ([1]; listed as degarelix): prevent GnRH-induced ovulations
CONC(=O)Nc1ccc(-c2sc3c(c2CN(C)C)c(=O)n(-c2ccc(OC)nn2)c(=O)n3Cc2c(F)cccc2F)cc1 [Relugolix, 1-[4-[1-[(2,6-difluorophenyl)methyl]-5-[(dimethylamino)methyl]-3-(6-methoxypyridazin-3-yl)-2,4-dioxothieno[2,3-d]pyrimidin-6-yl]phenyl]-3-methoxyurea] | 1.72 mIU/mL | 1.47 mIU/mL | did not register an increase in LH | No | 13.94 mIU/ml | 6.97 mIU/ml | 18.48 mIU/ml | 19.92 mIU/ml | 10 mm | 9.8 mm and 12.1 mm | 22.66 mIU/ml and 5.22 mIU/ml | 9.71 mIU/ml and 4.23 mIU/ml | 30.96 mIU/ml and 5.99 mIU/ml | 33.09 mIU/ml and 6.75 mIU/ml | – | – | Plasma LH response to GnRH challenge ([1]; listed as relugolix): block the GnRH-induced LH release; Ovulation (Yes/No) within 48 hr of GnRH treatment ([1]; listed as relugolix): prevent GnRH-induced ovulations
CC(=O)Nc1ccc(C[C@H](NC(=O)[C@H](CO)NC(=O)[C@@H](Cc2cccnc2)NC(=O)[C@@H](Cc2ccc(Cl)cc2)NC(=O)[C@@H](Cc2ccc3ccccc3c2)NC(C)=O)C(=O)N[C@H](Cc2ccc(NC(C)=O)cc2)C(=O)N[C@@H](CC(C)C)C(=O)N[C@@H](CCCCNC(C)C)C(=O)N2CCC[C@H]2C(=O)N[C@H](C)C(N)=O)cc1 [acyline, N-acetyl-3-(2-naphthyl)-D-alanyl-4-chloro-D-phenylalanyl-3-(3-pyridyl)-D-alanyl-L-seryl-4-acetamido-L-phenylalanyl-4-acetamido-D-phenylalanyl-L-leucyl-N6-isopropyl-L-lysyl-L-prolyl-D-alaninamide] (Ac-[d2Nal][dPhe(4-Cl)][d3Pal]S[Phe(4-NH2)](Ac)[dPhe(4-NH2)](Ac)L[Lys(iPr)]P[dA]-NH2) | – | – | – | – | – | – | – | – | – | – | – | – | – | – | – | – | Maximum diameter of dominant follicle (dominant follicle): 7.7 mm
Abarelix (Abarelix acetate) (peptide) | – | – | – | – | – | – | – | – | – | – | – | – | – | – | 2.21 mIU/mL | 2.15 mIU/mL | –
Degarelix (Degarelix acetate) (peptide) | – | – | – | – | – | – | – | – | – | – | – | – | – | – | 1.33 mIU/mL | 1.21 mIU/mL | –
